Experimental data as given in BindingDB's records for doi:10.1016/j.bioorg.2016.10.003 (Indian Institute of Technology (Banaras Hindu University), 2016).
pIC50: −log10 of the molar value.

target: T1, Prostaglandin G/H synthase 1 (Ovis aries, UniProt P05979); test: In vitro COX Inhibition Assay
T1 sequence (P05979 whole entry): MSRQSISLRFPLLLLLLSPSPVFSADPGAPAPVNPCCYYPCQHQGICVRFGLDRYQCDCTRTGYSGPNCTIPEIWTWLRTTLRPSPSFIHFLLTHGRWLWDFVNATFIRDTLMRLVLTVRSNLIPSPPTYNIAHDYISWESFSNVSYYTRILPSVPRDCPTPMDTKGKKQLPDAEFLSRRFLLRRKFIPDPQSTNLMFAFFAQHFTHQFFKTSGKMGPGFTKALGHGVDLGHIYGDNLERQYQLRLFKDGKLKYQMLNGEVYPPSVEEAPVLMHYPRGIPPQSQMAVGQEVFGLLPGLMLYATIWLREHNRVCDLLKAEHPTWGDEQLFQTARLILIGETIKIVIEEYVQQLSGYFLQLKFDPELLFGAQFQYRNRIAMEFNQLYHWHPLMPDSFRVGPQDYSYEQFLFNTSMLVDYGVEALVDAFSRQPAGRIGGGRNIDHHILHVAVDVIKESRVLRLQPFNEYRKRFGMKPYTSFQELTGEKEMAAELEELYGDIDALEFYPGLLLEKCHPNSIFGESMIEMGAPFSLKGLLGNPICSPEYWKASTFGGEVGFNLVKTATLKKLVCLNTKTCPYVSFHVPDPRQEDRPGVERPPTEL
Method: The peroxidase activity is assayed colorimetrically by monitoring the appearance of oxidised N,N,N',N'-tetramethyl-p-phenylenediamine (TMPD) at 590 nm.

pIC50 | Compound
4.19 | O=c1nc(-c2ccccc2)c(-c2ccccc2)nn1Cc1nnc(Nc2ccc(Cl)cc2)o1 [2-((5-(4-Chlorophenylamino)-1,3,4-oxadiazol-2-yl)methyl)-5,6-diphenyl-1,2,4-triazin-3(2H)-one (3d)]
4.21 | O=c1nc(-c2ccccc2)c(-c2ccccc2)nn1Cc1nnc(Nc2ccc(Cl)cc2)s1 [2-((5-(4-Chlorophenylamino)-1,3,4-thiadiazol-2-yl)methyl)-5,6-diphenyl-1,2,4-triazin-3(2H)-one (4d)]
4.22 | COc1ccc(Nc2nnc(Cn3nc(-c4ccccc4)c(-c4ccccc4)nc3=O)o2)cc1 [2-((5-(4-Methoxyphenylamino)-1,3,4-oxadiazol-2-yl)methyl)-5,6-diphenyl-1,2,4-triazin-3(2H)-one (3c)]
4.22 | COc1ccc(Nc2nnc(Cn3nc(-c4ccccc4)c(-c4ccccc4)nc3=O)s2)cc1 [2-((5-(4-Methoxyphenylamino)-1,3,4-thiadiazol-2-yl)methyl)-5,6-diphenyl-1,2,4-triazin-3(2H)-one (4c)]
4.20 | O=c1nc(-c2ccccc2)c(-c2ccccc2)nn1Cc1nnc(Nc2ccc([N+](=O)[O-])cc2)o1 [2-((5-(4-Nitrophenylamino)-1,3,4-oxadiazol-2-yl)methyl)-5,6-diphenyl-1,2,4-triazin-3(2H)-one (3e)]
4.20 | O=c1nc(-c2ccccc2)c(-c2ccccc2)nn1Cc1nnc(Nc2ccc([N+](=O)[O-])cc2)s1 [2-((5-(4-Nitrophenylamino)-1,3,4-thiadiazol-2-yl)methyl)-5,6-diphenyl-1,2,4-triazin-3(2H)-one (4e)]
